Laboratory results published in US12065436B2, “Cardiac sarcomere inhibitors” (Cytokinetics, Inc., priority 2018, dated 2024).
pIC50: −log10 of the molar value.

Target: bovine cardiac myofibrils (full-length cardiac myosin ATPase in the native sarcomere) (Bos taurus (Bovine), UniProt Q9BE39)
Assay: Skinned bovine cardiac myofibril ATPase assay (PK/LDH-coupled)
Assay type: biochemical
Settings: Ca2+ activating to 75% of maximal rate; for CDMF75 IC15: concentration giving 15% inhibition; for pIC50: read-out: CDMF75 IC50
Procedure, shortened: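 Triton-skinned bovine left-ventricle myofibrils (1 mg/mL) in PM 12 buffer (12 mM PIPES, 2 mM MgCl2, pH 6.8) with 50 μM ATP, 0.6 mM EGTA and CaCl2 set for 50% or 75% activation. Steady-state ATPase inhibition followed by PK/LDH-coupled NADH oxidation at 340 nm.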

Chain of bovine cardiac myofibrils (full-length cardiac myosin ATPase in the native sarcomere) (Q9BE39 whole entry): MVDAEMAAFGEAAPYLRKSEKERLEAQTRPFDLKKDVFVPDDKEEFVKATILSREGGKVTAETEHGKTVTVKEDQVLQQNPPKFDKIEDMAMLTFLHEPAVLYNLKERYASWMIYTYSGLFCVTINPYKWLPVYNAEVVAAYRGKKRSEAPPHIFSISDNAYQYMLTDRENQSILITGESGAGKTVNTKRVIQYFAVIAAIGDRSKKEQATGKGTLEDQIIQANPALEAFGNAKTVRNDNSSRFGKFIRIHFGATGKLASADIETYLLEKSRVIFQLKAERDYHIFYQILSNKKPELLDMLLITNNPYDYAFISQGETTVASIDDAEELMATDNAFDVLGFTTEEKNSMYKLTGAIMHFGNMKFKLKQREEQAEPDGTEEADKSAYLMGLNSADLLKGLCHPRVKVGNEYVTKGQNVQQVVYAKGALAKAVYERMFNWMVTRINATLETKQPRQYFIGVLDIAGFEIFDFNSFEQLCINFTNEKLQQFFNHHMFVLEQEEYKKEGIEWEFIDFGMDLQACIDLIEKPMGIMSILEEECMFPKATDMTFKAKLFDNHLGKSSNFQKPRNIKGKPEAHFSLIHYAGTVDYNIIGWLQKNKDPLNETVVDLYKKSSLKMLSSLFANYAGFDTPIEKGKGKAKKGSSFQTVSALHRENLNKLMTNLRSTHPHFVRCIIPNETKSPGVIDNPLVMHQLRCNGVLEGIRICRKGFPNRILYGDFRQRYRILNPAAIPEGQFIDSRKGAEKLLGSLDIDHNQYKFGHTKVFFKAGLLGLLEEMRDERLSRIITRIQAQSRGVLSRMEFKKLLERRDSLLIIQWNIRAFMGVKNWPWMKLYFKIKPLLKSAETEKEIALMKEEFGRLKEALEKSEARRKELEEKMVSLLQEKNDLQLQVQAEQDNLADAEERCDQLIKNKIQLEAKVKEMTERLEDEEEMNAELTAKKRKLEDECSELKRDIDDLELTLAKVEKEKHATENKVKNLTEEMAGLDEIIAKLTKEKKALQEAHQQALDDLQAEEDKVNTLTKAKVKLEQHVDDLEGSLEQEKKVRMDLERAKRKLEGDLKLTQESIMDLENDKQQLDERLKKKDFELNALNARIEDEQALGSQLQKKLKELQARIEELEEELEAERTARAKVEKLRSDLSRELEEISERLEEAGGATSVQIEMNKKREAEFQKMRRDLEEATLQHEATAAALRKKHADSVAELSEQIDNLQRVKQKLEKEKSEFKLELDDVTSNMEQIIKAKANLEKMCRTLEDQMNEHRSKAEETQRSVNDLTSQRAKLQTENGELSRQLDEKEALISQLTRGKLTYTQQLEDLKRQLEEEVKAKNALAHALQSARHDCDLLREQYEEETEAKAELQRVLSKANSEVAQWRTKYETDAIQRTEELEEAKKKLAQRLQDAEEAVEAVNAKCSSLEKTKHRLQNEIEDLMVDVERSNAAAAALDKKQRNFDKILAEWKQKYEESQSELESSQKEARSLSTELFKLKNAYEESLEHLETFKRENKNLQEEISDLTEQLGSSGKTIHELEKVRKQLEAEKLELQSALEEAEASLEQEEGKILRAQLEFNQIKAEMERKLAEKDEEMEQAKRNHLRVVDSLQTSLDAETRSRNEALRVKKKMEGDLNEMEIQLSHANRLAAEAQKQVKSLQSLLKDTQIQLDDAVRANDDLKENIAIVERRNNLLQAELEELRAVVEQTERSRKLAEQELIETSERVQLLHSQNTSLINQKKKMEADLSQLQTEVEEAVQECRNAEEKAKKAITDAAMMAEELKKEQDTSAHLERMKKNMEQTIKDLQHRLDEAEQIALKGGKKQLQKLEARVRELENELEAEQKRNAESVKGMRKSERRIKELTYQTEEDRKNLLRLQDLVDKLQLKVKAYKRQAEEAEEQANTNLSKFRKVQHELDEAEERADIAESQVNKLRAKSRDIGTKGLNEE
Chain of bovine cardiac myofibrils (full-length cardiac myosin ATPase in the native sarcomere) (P85100 whole entry partner): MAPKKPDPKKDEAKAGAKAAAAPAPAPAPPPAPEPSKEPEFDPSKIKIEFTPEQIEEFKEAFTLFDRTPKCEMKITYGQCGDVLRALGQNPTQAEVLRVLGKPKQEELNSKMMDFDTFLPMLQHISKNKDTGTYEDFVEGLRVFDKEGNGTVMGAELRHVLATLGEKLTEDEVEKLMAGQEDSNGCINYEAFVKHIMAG
Chain of bovine cardiac myofibrils (full-length cardiac myosin ATPase in the native sarcomere) (Q3SZE5 whole entry partner): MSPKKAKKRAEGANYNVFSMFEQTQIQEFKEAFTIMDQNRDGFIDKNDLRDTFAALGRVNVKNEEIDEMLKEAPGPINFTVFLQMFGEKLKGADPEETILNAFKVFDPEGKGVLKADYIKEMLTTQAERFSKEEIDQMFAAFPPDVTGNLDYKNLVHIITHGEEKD

Structure (SMILES)	CDMF75 IC15 [µM]	pIC50
COCc1nc(-c2ccc3c(c2)CC[C@H]3NC(=O)c2cc(OC)no2)no1 [Compound 693, (R)-3-methoxy-N-(5-(5-(methoxymethyl)-1,2,4-oxadiazol-3-yl)-2,3-dihydro-1H-inden-1-yl)isoxazole-5-carboxamide]	0.9	5.43
COCc1nc(-c2ccc3c(c2)CC[C@H]3NC(=O)c2cnn(CCO)c2C)no1 [Compound 694, (R)-1-(2-hydroxyethyl)-N-(5-(5-(methoxymethyl)-1,2,4-oxadiazol-3-yl)-2,3-dihydro-1H-inden-1-yl)-5-methyl-1H-pyrazole-4-carboxamide]	1.8	5.15
COCc1nc(-c2ccc3c(c2)CC[C@H]3NC(=O)c2cn(CCO)nc2C)no1 [Compound 695, (R)-1-(2-hydroxyethyl)-N-(5-(5-(methoxymethyl)-1,2,4-oxadiazol-3-yl)-2,3-dihydro-1H-inden-1-yl)-3-methyl-1H-pyrazole-4-carboxamide]	2.1	5.11
COCc1nc(-c2ccc3c(c2)CC[C@H]3NC(=O)c2cnc(C)s2)no1 [Compound 696, (R)-N-(5-(5-(methoxymethyl)-1,2,4-oxadiazol-3-yl)-2,3-dihydro-1H-inden-1-yl)-2-methylthiazole-5-carboxamide]	1.1	5.38
COCc1nc(-c2ccc3c(c2)CC[C@H]3NC(=O)c2nnc(C)o2)no1 [Compound 698, (R)-N-(5-(5-(methoxymethyl)-1,2,4-oxadiazol-3-yl)-2,3-dihydro-1H-inden-1-yl)-5-methyl-1,3,4-oxadiazole-2-carboxamide]	0.9	5.46
CCc1nc(-c2cc3c(cc2F)[C@H](NC(=O)c2cnn(C)c2)CC3)no1 [Compound 699, (R)-N-(5-(5-ethyl-1,2,4-oxadiazol-3-yl)-6-fluoro-2,3-dihydro-1H-inden-1-yl)-1-methyl-1H-pyrazole-4-carboxamide]	1.7	5.12
CCc1nc(-c2ccc3c(c2)CC[C@H]3NC(=O)c2cccc(C(O)CO)c2)no1 (stereo partly drawn) [Compound 700, 3-(1,2-dihydroxyethyl)-N-((R)-5-(5-ethyl-1,2,4-oxadiazol-3-yl)-2,3-dihydro-1H-inden-1-yl)benzamide]	0.7	5.59
O=C(N[C@@H]1COc2cc(-c3noc(C(F)F)n3)ccc21)c1cccc(CO)c1 [Compound 701, (S)-N-(6-(5-(difluoromethyl)-1,2,4-oxadiazol-3-yl)-2,3-dihydrobenzofuran-3-yl)-3-(hydroxymethyl)benzamide]	0.3	5.96
Cc1noc(-c2ccc3c(c2)CC[C@H]3NC(=O)c2cnc(C)n2C)n1 [Compound 702, (R)-1,2-dimethyl-N-(5-(3-methyl-1,2,4-oxadiazol-5-yl)-2,3-dihydro-1H-inden-1-yl)-1H-imidazole-5-carboxamide]	2.6	4.93
Cc1noc(-c2ccc3c(c2)CC[C@H]3NC(=O)c2nnc(C)o2)n1 [Compound 703, (R)-5-methyl-N-(5-(3-methyl-1,2,4-oxadiazol-5-yl)-2,3-dihydro-1H-inden-1-yl)-1,3,4-oxadiazole-2-carboxamide]	1.7	5.21
Cc1noc(-c2ccc3c(c2)CC[C@H]3NC(=O)c2cnn(CCO)c2C)n1 [Compound 704, (R)-1-(2-hydroxyethyl)-5-methyl-N-(5-(3-methyl-1,2,4-oxadiazol-5-yl)-2,3-dihydro-1H-inden-1-yl)-1H-pyrazole-4-carboxamide]	2.6	4.94
Cc1cc(C(=O)N[C@@H]2CCc3cc(-c4nc(C)no4)ccc32)cnn1 [Compound 705, (R)-6-methyl-N-(5-(3-methyl-1,2,4-oxadiazol-5-yl)-2,3-dihydro-1H-inden-1-yl)pyridazine-4-carboxamide]	4.9	4.55
Cc1noc(-c2ccc3c(c2)CC[C@H]3NC(=O)c2cccc(CO)c2)n1 [Compound 706, (R)-3-(hydroxymethyl)-N-(5-(3-methyl-1,2,4-oxadiazol-5-yl)-2,3-dihydro-1H-inden-1-yl)benzamide]	0.6	5.60
O=C(N[C@@H]1COc2cc(-c3noc(C(F)F)n3)ccc21)c1cc(CO)ccn1 [Compound 707, (S)-N-(6-(5-(difluoromethyl)-1,2,4-oxadiazol-3-yl)-2,3-dihydrobenzofuran-3-yl)-4-(hydroxymethyl)picolinamide]	0.9	5.44
O=C(N[C@@H]1COc2cc(-c3noc(C(F)F)n3)ccc21)c1cc(CO)ccn1 [Compound 708, (S)-N-(6-(5-(difluoromethyl)-1,2,4-oxadiazol-3-yl)-2,3-dihydrobenzofuran-3-yl)-4-(hydroxymethyl)picolinamide]	0.6	5.55
O=C(N[C@@H]1COc2cc(-c3noc(C(F)F)n3)ccc21)c1ccnc(CO)c1 [Compound 710, (S)-N-(6-(5-(difluoromethyl)-1,2,4-oxadiazol-3-yl)-2,3-dihydrobenzofuran-3-yl)-2-(hydroxymethyl)isonicotinamide]	0.4	5.72

Structure (SMILES)	CDMF75 IC15 [µM]	pIC50
COCc1nc(-c2ccc3c(c2)OC[C@H]3NC(=O)c2cccc(CO)c2)no1 [Compound 711, (S)-3-(hydroxymethyl)-N-(6-(5-(methoxymethyl)-1,2,4-oxadiazol-3-yl)-2,3-dihydrobenzofuran-3-yl)benzamide]	0.8	5.55
COCc1nc(-c2ccc3c(c2)OC[C@H]3NC(=O)c2cccc(CO)c2)no1 [Compound 712, (S)-3-(hydroxymethyl)-N-(6-(5-(methoxymethyl)-1,2,4-oxadiazol-3-yl)-2,3-dihydrobenzofuran-3-yl)benzamide]	0.5	5.62
COCc1nc(-c2ccc3c(c2)OC[C@H]3NC(=O)c2cc(CO)ccn2)no1 [Compound 713, (S)-4-(hydroxymethyl)-N-(6-(5-(methoxymethyl)-1,2,4-oxadiazol-3-yl)-2,3-dihydrobenzofuran-3-yl)picolinamide]	2.7	4.96
COCc1nc(-c2ccc3c(c2)OC[C@H]3NC(=O)c2ccnc(CO)c2)no1 [Compound 714, (S)-2-(hydroxymethyl)-N-(6-(5-(methoxymethyl)-1,2,4-oxadiazol-3-yl)-2,3-dihydrobenzofuran-3-yl)isonicotinamide]	1.4	5.26
CCc1nc(-c2ccc3c(c2)CC[C@H]3NC(=O)c2cccc(C(C)O)c2)no1 (stereo partly drawn) [Compound 715, N-((R)-5-(5-ethyl-1,2,4-oxadiazol-3-yl)-2,3-dihydro-1H-inden-1-yl)-3-(1-hydroxyethyl)benzamide]	0.4	5.82
Cc1noc(-c2ccc3c(c2)CC[C@H]3NC(=O)c2ccnc(C(F)F)c2)n1 [Compound 716, (R)-2-(difluoromethyl)-N-(5-(3-methyl-1,2,4-oxadiazol-5-yl)-2,3-dihydro-1H-inden-1-yl)isonicotinamide]	1.4	5.23
Cc1nc(-c2ccc3c(c2)OC[C@H]3NC(=O)c2cccc(CO)c2)no1 [Compound 717, (S)-3-(hydroxymethyl)-N-(6-(5-methyl-1,2,4-oxadiazol-3-yl)-2,3-dihydrobenzofuran-3-yl)benzamide]	0.4	5.74
Cc1nc(-c2ccc3c(c2)OC[C@H]3NC(=O)c2cc(CO)ccn2)no1 [Compound 718, (S)-4-(hydroxymethyl)-N-(6-(5-methyl-1,2,4-oxadiazol-3-yl)-2,3-dihydrobenzofuran-3-yl)picolinamide]	1.1	5.28
Cc1nc(-c2ccc3c(c2)OC[C@H]3NC(=O)c2ccnc(CO)c2)no1 [Compound 719, (S)-2-(hydroxymethyl)-N-(6-(5-methyl-1,2,4-oxadiazol-3-yl)-2,3-dihydrobenzofuran-3-yl)isonicotinamide]	0.8	5.43
CCc1nc(-c2ccc3c(c2)CC[C@H]3NC(=O)c2cc(C(C)=O)ccn2)no1 [Compound 720, (R)-4-acetyl-N-(5-(5-ethyl-1,2,4-oxadiazol-3-yl)-2,3-dihydro-1H-inden-1-yl)picolinamide]	2.3	4.98
CCc1nc(-c2ccc3c(c2)CC[C@H]3NC(=O)c2cc(C(C)O)ccn2)no1 (stereo partly drawn) [Compound 721, N-((R)-5-(5-ethyl-1,2,4-oxadiazol-3-yl)-2,3-dihydro-1H-inden-1-yl)-4-(1-hydroxyethyl)picolinamide]	1.5	5.17
COCc1nc(-c2ccc3c(c2)CC[C@H]3NC(=O)c2cccc(C(C)O)c2)no1 (stereo partly drawn) [Compound 722, 3-(1-hydroxyethyl)-N-((R)-5-(5-(methoxymethyl)-1,2,4-oxadiazol-3-yl)-2,3-dihydro-1H-inden-1-yl)benzamide]	1.4	5.25
CCc1nc(-c2ccc3c(c2)CC[C@H]3NC(=O)N2CC[C@H](O)C2)no1 [Compound 723, (S)-N-((R)-5-(5-ethyl-1,2,4-oxadiazol-3-yl)-2,3-dihydro-1H-inden-1-yl)-3-hydroxypyrrolidine-1-carboxamide]	4.4	4.69
CCc1nc(-c2ccc3c(c2)CC[C@H]3NC(=O)N2CC[C@@H](O)C2)no1 [Compound 724, (R)-N-((R)-5-(5-ethyl-1,2,4-oxadiazol-3-yl)-2,3-dihydro-1H-inden-1-yl)-3-hydroxypyrrolidine-1-carboxamide]	1.7	5.17
Cc1nc(-c2ccc3c(c2)CC[C@H]3NC(=O)c2cccc([C@H](C)O)c2)no1 [Compound 725, 3-((S)-1-hydroxyethyl)-N-((R)-5-(5-methyl-1,2,4-oxadiazol-3-yl)-2,3-dihydro-1H-inden-1-yl)benzamide]	0.6	5.54
